Patent publication US7737139B2, “Sulfonic acids, their derivatives and pharmaceutical compositions containing them” (Dompe PHA.R.MA S.p.A., priority 2003, dated 2010)
Counter-ions that a name gives are not always drawn.

Columns and labels:
[1] = test system: human PMNs; test: IL-8 induced human PMN chemotaxis assay; format: cell-based; settings: compounds marked * tested at c = 10^−7; human PMNs chemotaxis induced by IL-8 (100 ng/mL)
[2] = test system: human PMNs; test: IL-8 induced human PMN chemotaxis assay; format: cell-based; settings: c = 10^−8 M; human PMNs chemotaxis induced by IL-8 (100 ng/mL)
Procedure: The compounds of formula (I) were evaluated in vitro for their ability to inhibit chemotaxis of polymorphonucleate leukocytes (hereinafter referred to as PMNs) and monocytes induced by the fractions of IL-8 and GRO-α. For this purpose, in order to isolate the PMNs from heparinized human blood, taken from healthy adult volunteers, mononucleates were removed by means of sedimentation on dextran (according to the procedure disclosed by W. J. Ming et al, J. Immunol., 138, 1469, 1987) and red blood cells by a hypotonic solution. The cell vitality was calculated by exclusion with Trypan blue, whilst the ratio of the circulating polymorphonucleates was estimated on the cytocentrifugate after staining with Diff Quick.
Human recombinant IL-8 (Pepro Tech) was used as stimulating agents in the chemotaxis experiments, giving practically identical results: the lyophilized protein was dissolved in a volume of HBSS containing 0.2% bovin serum albumin (BSA) so thus to obtain a stock solution having a concentration of 10^−5 M to be diluted in HBSS to a concentration of 10^−9 M, for the chemotaxis assays.
During the chemotaxis assay (according to W. Falket et al., J. Immunol. Methods, 33, 239, 1980) PVP-free filters with a porosity of 5 μm and microchambers suitable for replication were used.
The compounds of formula (I) were evaluated at a concentration ranging between 10^−6 and 10^−10 M; for this purpose they were added, at the same concentration, both to the […] of the microchamber. Evaluation of the ability of the compounds of the invention of formula I to inhibit IL-8-induced chemotaxis of human monocytes was carried out according to the method disclosed by Van Damme J. et al. (Eur. J. Immunol., 19, 2367, 1989).
Biological results of some representative compounds in the IL-8 induced PMN chemotaxis test are reported in table II (inhibition data, C=10^−8 M).

| Structure (SMILES) | inhibition at 0.1 µM [1] [%] | inhibition at 0.01 µM [2] [%] |
| --- | --- | --- |
| CS(=O)(=O)Nc1ccc(/C=C/S(N)(=O)=O)cc1 [Compound 17, E-2-[4-(methanesulfonylamino)phenyl] ethenesulfonamide] | 41 ± 17 |  |
| C/C(=C\S(N)(=O)=O)c1ccc(CC(C)C)cc1 [Compound 50, E-2-(4-isobutylphenyl)-2-methyl-ethenesulfonamide] |  | 32 ± 1 |
| CNS(=O)(=O)C(C)c1ccc(CC(C)C)cc1 (racemic) [Compound 43, (±)-1-(4-isobutylphenyl)ethane-N-methyl sulfonamide] | 36 ± 15 |  |
| CN(C)CCCNS(=O)(=O)/C=C/c1ccc(OS(=O)(=O)C(F)(F)F)cc1 [Compound 20, E-2-[4-(trifluoromethanesulfonyloxy)phenyl]ethene-(N,N-dimethylaminopropyl)sulfonamide] |  | 60 ± 1 |
| CC(C)Cc1ccc([C@@H](C)S(=O)(=O)O)cc1 [Compound 1, (−)-1-(4-isobutylphenyl) ethanesulfonic acid sodium salt] |  | 55 ± 7 |
| CC(=O)NS(=O)(=O)C(C)c1ccc(CC(C)C)cc1 (racemic) [Compound 47, (±)-1-(4-isobutylphenyl)ethane-N-acetyl sulfonamide] |  | 40 ± 17 |
| CC(c1cccc(C(=O)c2ccccc2)c1)S(=O)(=O)O (racemic) [Compound 8, sodium salt] |  | 65 ± 4 |
| CC(c1cccc(C(=O)c2ccccc2)c1)S(=O)(=O)NCCCN(C)C (racemic) [Compound 36, (±)-1-(3-benzoylphenyl)ethane-N-(N,N-dimethylaminopropyl) sulfonamide] |  | 49 ± 14 |
| CC(=O)c1ccc(CS(N)(=O)=O)n1C [Compound 31, (1-methyl-5-acetylpyrrolyl)-1-methanesulfonamide] |  | 39 ± 4 |
| CC(C)Cc1ccc(/C=C/S(N)(=O)=O)cc1 [Compound 14, E-2-(4-isobutylphenyl) ethenesulfonamide] |  | 41 ± 17 |
| CC(C)Cc1ccc(/C=C/S(=O)(=O)NCCCN(C)C)cc1 [Compound 18, E-2-(4-isobutylphenyl)ethene(N,N-dimethylaminopropyl) sulfonamide] |  | 40 ± 1 |
| CC(C)Cc1ccc([C@H](C)S(=O)(=O)O)cc1 [Compound 2, (+)-1-(4-isobutylphenyl) ethanesulfonic acid sodium salt] |  | 35 ± 7 |
| NS(=O)(=O)/C=C/c1cccc(C(=O)c2ccccc2)c1 [Compound 15, E-2-(3-benzoylphenyl) ethenesulfonamide] |  | 66 ± 10 |
| CC(C)C(=O)c1ccc(CS(N)(=O)=O)n1C [Compound 30, (1-methyl-5-isobutirrylpyrrolyl)-1-methanesulfonamide] |  | 50 ± 1 |
| CNS(=O)(=O)/C=C/c1ccc(CC(C)C)cc1 [Compound 22, E-2-(4-isobutylphenyl)ethene-N-methyl sulfonamide] | 41 ± 9 |  |
| CN(C)CCCNS(=O)(=O)/C=C/c1ccc(NS(C)(=O)=O)cc1 [Compound 21, E-2-[4-(methanesulfonylamino)phenyl] ethene-(N,N-dimethylaminopropyl) sulfonamide] |  | 31 ± 6 |
| CC(=O)c1ccc(CS(=O)(=O)O)n1C [Compound 7, (1-methyl-5-acetylpyrrolyl)-1-methanesulfonic acid sodium salt] |  | 35 ± 2 |
| CC(C)Cc1ccc(/C=C/S(=O)(=O)O)cc1 [Compound 10, E-2-(4-isobutylphenyl)ethenesulfonic acid sodium salt] |  | 45 ± 4 |
